Assay results as given in publication PMC3821045 (Synapse (New York, N.Y.), 2010).
“Also recorded” adds a separate entry of the source.

Assays:
Assay type in all cases: cell-based
[1] = molecular target: human D3 receptors expressed in CHO cells (Homo sapiens, UniProt P35462); test: Mitogenic assay; conditions: relative to quinpirole
[2] = molecular target: human D3 dopamine receptors (Homo sapiens, UniProt P35462); test: Forskolin-dependent adenylyl cyclase inhibition assay
[3] = molecular target: human D2 receptors expressed in CHO cells (Homo sapiens, UniProt P14416); test: Mitogenic assay; conditions: relative to quinpirole
[4] = molecular target: human D2 dopamine receptors (Homo sapiens, UniProt P14416); test: Forskolin-dependent adenylyl cyclase inhibition assay
Chain of human D2 dopamine receptors (P14416 whole entry): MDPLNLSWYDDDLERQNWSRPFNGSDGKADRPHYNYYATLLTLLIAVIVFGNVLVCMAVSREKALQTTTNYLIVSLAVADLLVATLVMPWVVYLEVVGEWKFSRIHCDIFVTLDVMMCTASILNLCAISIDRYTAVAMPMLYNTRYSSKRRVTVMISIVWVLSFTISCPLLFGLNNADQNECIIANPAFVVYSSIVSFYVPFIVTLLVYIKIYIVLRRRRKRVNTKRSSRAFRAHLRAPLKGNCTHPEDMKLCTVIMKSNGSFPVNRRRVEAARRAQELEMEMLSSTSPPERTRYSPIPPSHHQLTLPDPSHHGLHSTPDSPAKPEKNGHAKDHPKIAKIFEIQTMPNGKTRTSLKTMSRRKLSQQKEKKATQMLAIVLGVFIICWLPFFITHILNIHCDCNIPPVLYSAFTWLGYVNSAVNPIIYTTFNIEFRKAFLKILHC

Chain of human D2 receptors expressed in CHO cells (P14416 whole entry): as above
Chain of human D3 dopamine receptors (P35462 whole entry): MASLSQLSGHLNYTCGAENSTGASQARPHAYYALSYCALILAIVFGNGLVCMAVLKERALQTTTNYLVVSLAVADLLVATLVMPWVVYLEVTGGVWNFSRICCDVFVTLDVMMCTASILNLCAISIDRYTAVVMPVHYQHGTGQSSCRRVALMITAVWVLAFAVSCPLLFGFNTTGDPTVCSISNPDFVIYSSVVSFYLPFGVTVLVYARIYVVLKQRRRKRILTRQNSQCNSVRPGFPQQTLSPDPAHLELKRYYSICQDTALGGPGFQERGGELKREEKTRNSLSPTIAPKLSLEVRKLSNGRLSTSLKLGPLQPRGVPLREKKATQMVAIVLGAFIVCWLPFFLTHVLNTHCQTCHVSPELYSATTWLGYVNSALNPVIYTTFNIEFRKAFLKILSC
Chain of human D3 receptors expressed in CHO cells (P35462 whole entry): as above

Row | SMILES | intrinsic efficacy in mitogenic assay (in words) [1] | efficacy in adenylyl cyclase inhibition assay (in words) [2] | intrinsic efficacy in mitogenic assay (in words) [3] | efficacy in adenylyl cyclase inhibition assay (in words) [4]
1 | COc1ccccc1N1CCN(CCCCNC(=O)c2ccc(-c3cccnc3)cc2)CC1 [PG 848, N-(4-(4-(2-methoxyphenyl)piperazin-1-yl)butyl)-4-(pyridin-3-yl)benzamide] | antagonist | greatest efficacy | antagonist | 
2 | COc1ccccc1N1CCN(C/C=C/CNC(=O)c2ccc(-c3cccnc3)cc2)CC1 [PG 845, (E)-N-(4-(4-(2-methoxyphenyl)piperazin-1-yl)but-2-enyl)-4-(pyridin-3-yl)benzamide] |  | greatest efficacy |  | 
3 | O=C(NCCCCN1CCN(c2cccc(Cl)c2Cl)CC1)c1ccc2c(c1)Cc1ccccc1-2 [NGB 2904, reference compound] | antagonist | antagonist |  | 
4 | O=C(NCCCCN1CCN(c2cccc(Cl)c2Cl)CC1)c1ccc(-c2cccnc2)cc1 [PG01042, N-(4-(4-(2,3-dichlorophenyl)piperazin-1-yl)butyl)-4-(pyridin-3-yl)benzamide] | partial mitogenic agonist | strong agonist; also recorded: almost full agonist | partial mitogenic agonist | weak partial agonist
5 | O=C(NCCCCN1CCN(c2cccc(Cl)c2Cl)CC1)c1ccc(-c2ccccn2)cc1 [CJB090, N-(4-(4-(2,3-dichlorophenyl)piperazin-1-yl)butyl)-4-(pyridin-2-yl)benzamide] | partial agonist; also recorded: some activity | partial agonist | some activity | partial agonist
